According to patent publication US20250188110A1, “SPECIFIC SMALL MOLECULE INHIBITORS THAT BLOCK KMT9 METHYLTRANSFERASE ACTIVITY AND FUNCTION” (ALBERT-LUDWIGS-UNIVERSITÄT FREIBURG, priority 2021, published 2025):

Legend:
[1] = molecular target: T1, KMT9 (Homo sapiens, UniProt Q9Y5N5); assay: Microscale thermophoresis (MST) KMT9 binding; settings: microscale thermophoresis, His-tag labelled KMT9 (20 nM); read-out: MST
T1 sequence (Q9Y5N5 1-214): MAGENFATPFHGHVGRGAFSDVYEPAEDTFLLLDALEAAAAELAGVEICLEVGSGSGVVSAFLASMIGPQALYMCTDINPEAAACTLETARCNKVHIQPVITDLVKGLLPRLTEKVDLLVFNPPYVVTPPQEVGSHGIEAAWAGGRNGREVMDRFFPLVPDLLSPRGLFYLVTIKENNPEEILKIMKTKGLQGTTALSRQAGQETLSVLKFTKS
T1 sequence (Q9UI30 1-120 isoform Q9UI30-2 partner): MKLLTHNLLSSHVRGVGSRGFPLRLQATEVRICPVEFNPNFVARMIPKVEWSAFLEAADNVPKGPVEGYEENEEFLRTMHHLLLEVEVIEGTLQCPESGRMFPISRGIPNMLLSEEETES
Procedure, shortened: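 His-tagged KMT9 (20 nM), RED-Tris-NTA labelled, titrated with varying compound concentrations in 25 mM HEPES pH 7.5, 100 mM NaCl, 1 mM DTT, 0.05% Tween. MST at 40% MST and 100% LED power, Nano-RED excitation; Kd binned A ≤10 nM, B 10–100, C 100–1000, D >1000 nM.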

[2] = molecular target: T1, KMT9; assay: KMT9 thermal shift assay (SyproOrange); format: binding; settings: ΔTm; 500 µM compound, 2 μM KMT9, 5X SO; read-out: Thermal shift
Procedure, shortened: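 Recombinant KMT9 was incubated with compound and SyproOrange at 25° C in 50 mM BTP pH 8.5, 1 mM MgCl2, 1 mM DTT. It was then heated from 20° C to 95° C at 1° C per 15 s with fluorescence read each step. Tm came from a Boltzmann sigmoidal fit; ΔTm relative to DMSO control, binned in 5 K ranges.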

[3] = molecular target: T1, KMT9; assay: KMT9 methyltransferase inhibition assay, 3H-SAM scintillation (entries 1-154); format: biochemical; settings: entries 1-154: 3H-SAM assay, 25 nM KMT9, 5 μM ETF1
Procedure, shortened: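 Final 25 nM KMT9, 5 μM ETF1 (residues 140-275), 0.3 μM 3H-SAM plus 0.7 μM SAM in pH 8.5 BTP buffer, 2 h at 30° C. TCA-quenched, filter-washed, methylation counted by scintillation; % inhibition vs DMSO and no-enzyme controls, IC50 from four-parameter fit.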

Kd [1]	ΔTm at 500 µM [2]	IC50 [3]	SMILES
> 1 µM	≤ 10 °C	> 10 µM	CCc1cn([C@@H]2C[C@H](CNCCCNCCc3ccccc3)[C@@H](O)[C@H]2O)c2ncnc(Cl)c12 [Compound 632, (1R,2S,3R,5R)-3-(4-chloro-5-ethyl-7H-pyrrolo[2,3-d]pyrimidin-7-yl)-5-(((3-(phenethylamino)propyl)amino)methyl)cyclopentane-1,2-diol]
0.1 to 1 µM	10 to 15 °C	1 to 10 µM	CCc1cn([C@@H]2C[C@H](CNCCCNCCc3ccccc3)[C@@H](O)[C@H]2O)c2ncnc(N)c12 [465 (339), (1R,2S,3R,5R)-3-{4-amino-5-ethylpyrrolo[2,3-d]pyrimidin-7-yl}-5-[{{3-[(2-phenylethyl)amino]propyl}amino)methyl]cyclopentane-1,2-diol]
≤ 0.01 µM	15 to 20 °C	< 0.1 µM	Nc1ncnc2c1c(-c1ccn(S(=O)(=O)c3ccccc3)n1)cn2[C@@H]1C[C@H](CNCCCNCCc2ccccc2)[C@@H](O)[C@H]1O [Compound 604, (1R,2S,3R,5R)-3-(4-Amino-5-(1-(phenylsulfonyl)-1H-pyrazol-3-yl)-7H-pyrrolo[2,3-d]pyrimidin-7-yl)-5-(((3-(phenethylamino)propyl)amino)methyl)cyclopentane-1,2-diol]
0.1 to 1 µM	10 to 15 °C	1 to 10 µM	CNc1ncnc2c1ccn2[C@@H]1C[C@H](C(=O)NCCCNCc2cccc(Oc3ccccc3)c2)[C@@H](O)[C@H]1O [353 (257), (1S,2R,3S,4R)-2,3-dihydroxy-4-(4-(methylamino)-7H-pyrrolo[2,3-d]pyrimidin-7-yl)-N-(3-((3-phenoxybenzyl)amino)propyl) cyclopentane-1-carboxamide]
> 1 µM	≤ 10 °C	> 10 µM	CNc1ncnc2c1ccn2[C@@H]1C[C@H](CNCC(F)(F)CNCCc2ccc3ccccc3c2)[C@@H](O)[C@H]1O [357 (261), (1S,2R,3R,5R)-3-(((2,2-difluoro-3-((2-(naphthalen-2-yl)ethyl)amino)propyl)amino)methyl)-5-(4-(methylamino)-7H-pyrrolo[2,3-a]pyrimidin-7-yl) cyclopentane-1,2-diol]
0.1 to 1 µM	10 to 15 °C	1 to 10 µM	CNc1ncnc2c1ccn2[C@@H]1C[C@H](CCCCCNCCc2ccccc2)[C@@H](O)[C@H]1O [424 (295), (1R,2S,3R,5S)-3-(4-(Methylamino)-7H-pyrrolo[2,3-d]pyrimidin-7-yl)-5-(5-(phenethylamino)pentyl) cyclopentane-1,2-diol]
> 1 µM	≤ 10 °C	> 10 µM	CNc1ncnc2c1ccn2[C@@H]1C[C@H](CN2CCC23CCCNC3)[C@@H](O)[C@H]1O (stereo partly drawn) [447 (319), (1S,2R,3R,5R)-3-{1,6-Diazaspiro[3.5]nonan-1-ylmethyl}-5-[4-(methylamino)pyrrolo[2,3-d]pyrimidin-7-yl]cyclopentane-1,2-diol]
0.1 to 1 µM	≤ 10 °C	1 to 10 µM	Nc1ncnc2c1ncn2[C@@H]1O[C@H](C(=O)NCCCNCCc2ccc(Oc3ccccc3)cc2)[C@@H](O)[C@H]1O [297 (194), (2S,3S,4R,5R)-5-(6-amino-9H-purin-9-yl)-3,4-dihydroxy-N-(3-((4-phenoxyphenethyl)amino)propyl) tetrahydrofuran-2-carboxamide]
0.01 to 0.1 µM	15 to 20 °C	0.1 to 1 µM	Nc1ncnc2c1c(-c1ccn[nH]1)cn2[C@@H]1C[C@H](CNCCCNCCc2ccccc2)[C@@H](O)[C@H]1O [472 (346), (1R,2S,3R,5R)-3-(4-Amino-5-(1H-pyrazol-5-yl)-7H-pyrrolo[2,3-d]pyrimidin-7-yl)-5-(((3-(phenethylamino)propyl)amino)methyl) cyclopentane-1,2-diol]
> 1 µM	≤ 10 °C	> 10 µM	NC[C@H]1O[C@@H](n2cc3c4c(ncnc42)NCCC3)[C@H](O)[C@@H]1O [416 (287), (2R,3S,4R,5R)-2-(aminomethyl)-5-(6,7,8,9-tetrahydro-2H-2,3,5,6-tetraazabenzo[cd]azulen-2-yl) tetrahydrofuran-3,4-diol]
